The text below walks through data of PMC12700550, “DLL4^+ neutrophils promote Notch1-mediated endothelial PANoptosis to exacerbate acute lung injury in sepsis” (The Journal of Clinical Investigation, 2025).

In assay [1] the test system is ZBP1. The assay is described as follows: ZBP1 mRNA in PVECs cocultured with neutrophils, RT-PCR (DAPT, NDI, peptides 1–5). Type of assay: cell-based, mouse. Also on record: key to ZBP1 mRNA expression (Figure 4E): fold change in mRNA vs sham group. To be noted: for ZBP1 mRNA expression (Figure 4E): 10 μM peptide, relative mRNA, β-actin normalized, individual replicates. Here is the method: Immortalized mouse (Mus musculus) lung endothelial cells with polyoma middle T (PVECs) were purchased from Applied Biological Materials Inc. (ABM) and grown in 1:1 PriGrow VI Medium and PriGrow IV Medium (ABM).
Wild-type PVECs (5 × 10^5) were cocultured with sorted DLL4^+ neutrophils (5 × 10^5) or DLL4^– neutrophils (5 × 10^5) and then treated with different dosages of peptides or 10 μM DAPT (Thermo Fisher Scientific), 10 μM NDI (GenScript), or 10 μM NDI scramble (GenScript). Notch1-knockdown PVECs (5 × 10^5) were cocultured with sorted DLL4^+ neutrophils (5 × 10^5). After 16 hours, neutrophils were washed away by PBS, and PVECs were collected for further experiments. Cell viability was evaluated by propidium iodide staining using the FITC Annexin V Apoptosis Detection Kit I (catalog 556547, BD Pharmingen). Cell death was quantified as the percentage of propidium iodide–positive cells by flow cytometry.
mRNA was extracted from lung tissues with TRIzol reagent (Invitrogen, Thermo Fisher Scientific). An equal amount ([…]) of mRNA was reverse-transcribed into cDNA using the reverse transcriptase enzyme (Invitrogen, Thermo Fisher Scientific). qPCR was performed from the diluted cDNA templates with forward and reverse primers (Supplemental Table 4) and SYBR Green PCR Master Mix (Applied Biosystems, Thermo Fisher Scientific) using an Applied Biosystems 7300 real-time PCR machine. Mouse β-actin served as an internal control gene for normalization. Relative expression of mRNA was represented as fold change in comparison with the sham group.

The subject of assay [2] is C57BL/6 mice, CLP sepsis. The assay is described as follows: Lung injury score (H&E), CLP mice. To be noted: 20 h; for lung injury score (Figure 6J): 10 mg/kg NDI, score 0 to 1, individual values. Type of assay: in vivo, mouse. On the procedure: Sepsis was induced in mice by cecal ligation and puncture (CLP) as described previously ([45], [46]). Mice were anesthetized with isoflurane to a surgical plane and placed in a supine position. CLP was performed through a midline laparotomy. The abdomen was shaved and disinfected. Through a 2 cm midline incision, the cecum was exposed and then ligated with a 4-0 silk suture 1 cm proximal from the distal cecal extremity. […] A small amount of cecal content was extruded through both holes, and the ligated cecum was returned to the peritoneal cavity. The wound was closed in layers. […] A small amount of cecal content was extruded. […] Vehicle groups received an equivalent volume of PBS, while treatment groups received NDI 10 mg/kg in […] PBS via retro-orbital injection after CLP. This dose was chosen primarily on the basis of our laboratory’s prior experience, we have consistently used this dose in mouse CLP models with reproducible efficacy and without observable toxicity ([39], [44]). Sham-operated animals underwent a laparotomy without CLP. After closure, the mice received a subcutaneous injection of 0.5 mL of normal saline to overcome surgery-induced dehydration. […] All mice were subcutaneously injected with a single dose of 0.1 mg/kg buprenorphine after CLP. Lung tissues were fixed in 10% formalin before being embedded in paraffin. Blocks were cut into 5 μm sections and stained with H&E. Slides were evaluated under light microscopy to assess the degree of lung injury. Scoring was done using a system created by the American Thoracic Society ([47]). Scores ranged from 0 to 1 and were based on proteinaceous debris in the airspaces, the degree of septal thickening, and neutrophil infiltration in the alveolar and interstitial spaces. The average score per field was calculated at ×200 original magnification.

Assay [3] deals with C57BL/6 mice, CLP sepsis. The assay is described as follows: Lung water content, CLP mice. Type of assay: in vivo, mouse. The settings on record: 20 h; for lung water content (wet weight – dry weight)/wet weight (Figure 6K): 10 mg/kg NDI, individual mice. On the procedure:
Sepsis was induced in mice by cecal ligation and puncture (CLP) as described previously ([45], [46]). Mice were anesthetized with isoflurane to a surgical plane and placed in a supine position. CLP was performed through a midline laparotomy. The abdomen was shaved and disinfected. Through a 2 cm midline incision, the cecum was exposed and then ligated with a 4-0 silk suture 1 cm proximal from the distal cecal extremity. […] A small amount of cecal content was extruded through both holes, and the ligated cecum was returned to the peritoneal cavity. The wound was closed in layers. […] A small amount of cecal content was extruded. […] Vehicle groups received an equivalent volume of PBS, while treatment groups received NDI 10 mg/kg in […] PBS via retro-orbital injection after CLP. This dose was chosen primarily on the basis of our laboratory’s prior experience, we have consistently used this dose in mouse CLP models with reproducible efficacy and without observable toxicity ([39], [44]). Sham-operated animals underwent a laparotomy without CLP. After closure, the mice received a subcutaneous injection of 0.5 mL of normal saline to overcome surgery-induced dehydration. […] All mice were subcutaneously injected with a single dose of 0.1 mg/kg buprenorphine after CLP. Lung vascular leakage was quantified using the Evans blue dye–labeled (EBD-labeled) albumin extravasation assay ([48]). […] Sigma-Aldrich) via retro-orbital injection. At 1 hour after EBD administration (4.5 hours after the end of resuscitation), the lungs were perfused with heparinized (1 U/mL) normal saline via right ventricle injection to remove intravascular dye. The whole lung was dehydrated for 48 hours at 60°C, immersed in formamide (1 mL/g wet weight; Sigma-Aldrich) at 37°C for 48 hours, and centrifuged at 5,000g for 30 minutes. The amount of extracted EBD in the supernatant was quantified by spectrophotometry. The concentration of extravasated EBD-albumin in lung homogenates was expressed as nanograms EBD per milligram of dry lung tissue. Lung water content was calculated as (wet weight – dry weight)/wet weight %.

The mark [4] stands for this setting: DLL4^+ neutrophil-injected CLP mice, 10 mg/kg.

“And” between values parts separate entries of the source, which are not always exact repeats. Equal entries are not always repeated.

Take ECAGSPCHNGGTCEDGI [NDI]: the “effect on ZBP1 mRNA” value is listed as “significantly attenuated by NDI treatment” in assay [1] (10 μM NDI, DLL4^+ neutrophil coculture) and “significantly reduced ZBP1 expression” in assay [1] (PVECs cocultured with DLL4^+ neutrophils, varying concentrations of peptide, 16 h, n=10/group). Also, the “ZBP1 mRNA expression (Figure 4E)” value in assay [1] (DLL4^+ neutrophil coculture, 16 h) was 1.415 and 1.669 and 3.8174 and 1.677 and 1.56 and 2.849 and 9.163 and 6.321 and 1.561 and 1.421 and 1.212 and 1.283 and 1.413 and 1.3501; in assay [1] (DLL4^– neutrophil coculture, 16 h), 1.952 and 2.343 and 4.227 and 9.382 and 4.404 and 4.151 and 12.0095 and 11.4783 and 1.027 and 3.606 and 3.156 and 1.889 and 1.85 and 3.13. Besides, the “inhibition of DLL4^+ neutrophil–induced PANoptosis in PVECs, by reduced ZBP1 expression” value in assay [1] (among the tested peptides) is “most effectively inhibited”. Further, the “effective concentration for ZBP1 inhibition” value in assay [1] (dose-response, PVECs cocultured with DLL4^+ neutrophils) came to 10 µM. In addition, the “effect on lung injury” value in assay [2] (setting [4]) is listed as “significantly lower lung injury scores”. Also, the “lung injury score (Figure 6J)” value is 0.52 and 0.49 and 0.54 and 0.51 and 0.53 in assay [2] (DLL4^+ neutrophils + CLP); 0.58 and 0.44 and 0.52 and 0.48 and 0.54 in assay [2] (DLL4^– neutrophils + CLP). Besides, the “effect on lung water content” value in assay [3] (setting [4]) is “significantly attenuated these effects, reducing both lung water content and Evans blue dye content”. The “lung water content (wet weight – dry weight)/wet weight (Figure 6K)” value was 71.922% and 71.5282% and 71.1472% and 70.6857% and 70.3749% and 72.6514% and 72.546% and 71.2677% and 69.0684% and 72.1189% and 71.6599% and 71.2762% in assay [3] (DLL4^+ neutrophils + CLP); 69.6732% and 70.471% and 69.6655% and 68.9338% and 68.9855% and 70.575% and 70.9924% and 68.7155% and 69.153% in assay [3] (DLL4^– neutrophils + CLP).
